Experimental data as given in patent US11813306B2, “Cyclic tetramer compounds as proprotein convertase subtilisin/kexin type 9 (PCSK9) inhibitors for the treatment of metabolic disorders” (NOVARTIS AG, priority 2018, dated 2023).
pIC50: −log10 of the molar value.

Target: human PCSK9 (Homo sapiens, UniProt Q8NBP7)
Test: PCSK9 ligand binding assay (TR-FRET): interference with binding of human PCSK9 to human LDLR
Conditions: for pIC50: Human PCSK9 Alexa Fluor 647 / Human LDLR extracellular domain-Europium Kryptate; for Max % inhibition: efficacy (Amax), 100% = 1 uM unlabeled human PCSK9, 0% = DMSO
Summary of the method: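 Read-out was TR-FRET ratio (665 nm over 615 nm, 330 nm excitation) between Alexa Fluor 647-human PCSK9 (16 nM added) and Europium Kryptate-human LDLR ectodomain (4 nM added). Compound and PCSK9 were mixed 30 min before LDLR, then incubated 2 h. Inhibition was normalised to DMSO and unlabelled-PCSK9 controls, giving IC50 and Amax.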

Sequence of human PCSK9 (Q8NBP7 153-692): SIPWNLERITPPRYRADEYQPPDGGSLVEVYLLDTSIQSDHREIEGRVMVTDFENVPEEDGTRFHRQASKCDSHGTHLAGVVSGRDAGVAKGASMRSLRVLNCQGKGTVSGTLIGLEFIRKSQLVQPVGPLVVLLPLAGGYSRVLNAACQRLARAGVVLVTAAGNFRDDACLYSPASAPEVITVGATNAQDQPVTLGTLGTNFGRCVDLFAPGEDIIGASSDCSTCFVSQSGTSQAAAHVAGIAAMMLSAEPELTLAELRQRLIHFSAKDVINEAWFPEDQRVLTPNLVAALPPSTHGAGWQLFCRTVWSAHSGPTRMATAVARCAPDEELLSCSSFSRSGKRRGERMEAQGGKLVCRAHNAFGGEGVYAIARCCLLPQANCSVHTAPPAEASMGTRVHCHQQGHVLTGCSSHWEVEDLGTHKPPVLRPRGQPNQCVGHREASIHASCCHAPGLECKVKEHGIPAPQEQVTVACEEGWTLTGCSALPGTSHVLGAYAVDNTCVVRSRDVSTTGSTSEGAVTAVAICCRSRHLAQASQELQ
Sequence of human PCSK9 (Q8NBP7 31-152 partner limits assumed): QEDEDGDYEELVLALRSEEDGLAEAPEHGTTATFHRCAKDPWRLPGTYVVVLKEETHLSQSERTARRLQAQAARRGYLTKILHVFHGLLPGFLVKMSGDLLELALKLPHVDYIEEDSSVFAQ

Question: Which results are given for `C[C@H]1C(=O)N[C@@H](CO)C(=O)N[C@@]2(Cc3ccc(Cl)cc3)CCCN(C2)C(=O)[C@H](Cc2ccc(F)c(F)c2F)CC(=O)N1Cc1c(F)cc(Cl)cc1Oc1ccc(-c2cnc(CN(C)C)n2C)cc1` [Compound 48, (3R, 7S, 10S, 13R)-6-(4-chloro-2-(4-(2-((dimethylamino)methyl)-1-methyl-1H-imidazol-5-yl)phenoxy)-6-fluorobenzyl)-13-(4-chlorobenzyl)-10-(hydroxymethyl)-7-methyl-3-(2,3,4-trifluorobenzyl)-1,6,9,12-tetraazabicyclo[11.3.1]heptadecane-2,5,8,11-tetraone]?
Answer: pIC50: 9.22; Max % inhibition: 102.8%

Question: How did the pIC50 turn out when `C[C@H]1C(=O)N[C@@H](CO)C(=O)N[C@@]2(Cc3ccc(Cl)cc3)CCCN(C2)C(=O)[C@H]([C@@H]2CCc3ccccc32)CC(=O)N1Cc1c(F)cc(Cl)cc1Oc1ccc(-c2cnc(CN(C)C)n2C)cc1` [Compound 49, (3S, 7S, 10S, 13R)-6-(4-chloro-2-(4-(2-((dimethylamino)methyl)-1-methyl-1H-imidazol-5-yl)phenoxy)-6-fluorobenzyl)-13-(4-chlorobenzyl)-3-((S)-2,3-dihydro-1H-inden-1-yl)-10-(hydroxymethyl)-7-methyl-1,6,9,12-tetraazabicyclo[11.3.1]heptadecane-2,5,8,11-tetraone] was run?
Answer: 9.20

Question: What about the Max % inhibition of the same compound?
Answer: 102.2%

Question: With `C[C@H]1C(=O)N[C@@H](CO)C(=O)N[C@@]2(Cc3ccc(Cl)cc3)CCCN(C2)C(=O)[C@H](Cc2ccccc2)CC(=O)N1Cc1ccc(Cl)cc1Oc1ccc(-c2cnc(CN(C)C)n2C)cc1` [Compound 50, (3R,7S,10S,13R)-3-Benzyl-6-(4-chloro-2-(4-(2-((dimethylamino)methyl)-1-methyl-1H-imidazol-5-yl)phenoxy)benzyl)-13-(4-chlorobenzyl)-10-(hydroxymethyl)-7-methyl-1,6,9,12-tetraazabicyclo[11.3.1]heptadecane-2,5,8,11-tetraone] as the compound, how does the pIC50 read?
Answer: 9.29

Question: And the Max % inhibition?
Answer: 108.7%

Question: How did the pIC50 turn out when `CCC[C@@H]1CC(=O)N(Cc2c(F)cc(Cl)cc2Oc2ccc(-c3cnc(CN(C)C)n3C)cc2)[C@@H](C)C(=O)N[C@@H](CO)C(=O)N[C@@]2(Cc3ccc(Cl)cc3)CCCN(C2)C1=O` [Compound 51, (3R, 7S, 10S, 13R)-6-(4-chloro-2-(4-(2-((dimethylamino)methyl)-1-methyl-1H-imidazol-5-yl)phenoxy)-6-fluorobenzyl)-13-(4-chlorobenzyl)-10-(hydroxymethyl)-7-methyl-3-propyl-1,6,9,12-tetraazabicyclo[11.3.1]heptadecane-2,5,8,11-tetraone] was run?
Answer: 8.95

Question: And the Max % inhibition?
Answer: 101.3%

Question: What does the source list for `COC[C@@H]1NC(=O)[C@H](C)N(Cc2ccc(Cl)cc2Oc2ccc(-c3cnc(CN(C)C)n3C)nc2)C(=O)C[C@@H](Cc2ccccc2)C(=O)N2CCC[C@@](Cc3ccc(Cl)cc3)(C2)NC1=O` [Compound 52, (3R, 7S, 10S, 13R)-3-benzyl-6-(4-chloro-2-((6-(2-((dimethylamino)methyl)-1-methyl-1H-imidazol-5-yl)pyridin-3-yl)oxy)benzyl)-13-(4-chlorobenzyl)-10-(methoxymethyl)-7-methyl-1,6,9,12-tetraazabicyclo[11.3.1]heptadecane-2,5,8,11-tetraone]?
Answer: pIC50: 9.21; Max % inhibition: 112.5%

Question: `C[C@H]1C(=O)N[C@@H](CO)C(=O)N(C)[C@@]2(Cc3ccc(Cl)cc3)CCCN(C2)C(=O)[C@H](Cc2ccccc2)CC(=O)N1Cc1ccc(Cl)cc1Oc1ccc(-c2cnc(CN(C)C)n2C)cc1` [Compound 53, (3R, 7S, 10S, 13R)-3-benzyl-6-(4-chloro-2-(4-(2-((dimethylamino)methyl)-1-methyl-1H-imidazol-5-yl)phenoxy)benzyl)-13-(4-chlorobenzyl)-10-(hydroxymethyl)-7,12-dimethyl-1,6,9,12-tetraazabicyclo[11.3.1]heptadecane-2,5,8,11-tetraone] was tested. Which pIC50 did it give?
Answer: 9.15

Question: What about the Max % inhibition of the same compound?
Answer: 107.4%
